Values joined by “and” are separate entries in the source; they are usually repeats but may differ in a detail not shown here. Equal entries are not always repeated. Where two headings read alike, the source gives them in different places.

The record followed here is patent US12139481B2, “Compositions comprising macrocycle derivatives incorporating bridged macrocycles and methods of producing and using same” (Southwestern Oklahoma State University, priority 2015, dated 2024).

Assay [1] relates to Plasmodium falciparum W2 clone (Indochina, chloroquine-resistant). The assay can be described thus: In vitro antimalarial assay, chloroquine-resistant W2 clone. The assay is classed as cell-based. To be noted: W2 clone; for IC50: converted with molecular weight, read-out: P. falciparum W2 IC50; for X more potent than chloroquine: molar IC50 ratio versus chloroquine. An outline of the steps:
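Parasites grown in type A human RBCs; assay run on infected cell suspension at 2% parasitemia and 2% hematocrit, in duplicate at several concentrations. IC50 taken from dose curves, per the Makler method, with DMSO as vehicle; Vero cytotoxicity run in parallel to derive a selectivity index.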

The subject of the next assay is C. krusei ATCC 6258. The assay can be described thus: Antifungal broth dilution assay against C. krusei (modified CLSI). Format: cell-based, Candida krusei. The following applies: for X more potent than Amphotericin B: C. krusei, ratio of molar IC50 to amphotericin B; for C. krusei IC50 / IC50: in vitro; for IC50: read-out: C. krusei IC50 (mol/L). An outline of the steps: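 Growth read by optical density at 530 nm, duplicate wells, 1% final DMSO. Staphylococcus spp.: Mueller-Hinton pH 7.3, 5.0×10^5 CFU/ml, 35 °C for 16-20 h; Candida spp.: RPMI/dextrose/glutamine/MOPS pH 6.0, 1.5×10^3 CFU/ml, 35 °C for 46-50 h. Reported values are 50% inhibition versus controls, no-growth MIC, and killing MFC/MBC.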
A general note: Broth dilution looks for growth in wells or tubes with falling amounts of substance.

The subject of assay [2] is L. donovani promastigotes. Description: Antileishmanial Alamar Blue assay on promastigotes. Format: cell-based, Leishmania donovani. To be noted: for X more potent than Pentamidine: L. donovani, ratio of molar IC50 to Pentamidine. An outline of the steps: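 Alamar Blue fluorescence (544/590 nm) quantified growth after 48 hours at 26° C of compound-treated promastigotes. Parasites were seeded at 5×10^5/mL in RPMI 1640 plus 10% FCS; drug range 50-3.1 μg/mL, and IC50 derived by plotting percent growth against test concentration.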
(Resazurin is reduced to fluorescent resorufin, in cell work by metabolically active cells.)

Assay [3] has as its system S. mansoni newly transformed schistosomula (NTS). The assay can be described thus: In vitro testing on Schistosoma mansoni newly transformed schistosomula (NTS), viability score. Format: cell-based. The following applies: NTS S. mansoni, 33 μM, 72 h. An outline of the steps: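 Mechanically transformed S. mansoni (Liberian strain) NTS, cultured overnight, exposed at 100 per well to compound (from 10 mM DMSO stock; ≤1% DMSO controls) at 37 °C, 5% CO2 for 72 h. Viability scored microscopically from 3 (normal activity, intact tegument) to 0 (dead, granulated).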

Where [4] appears, read: promastigotes, 48 hours, Alamar Blue.
[5] abbreviates: promastigotes, 48 hours, Alamar Blue, read-out: L. donavani IC50.

`CC(=O)[O-].F[P-](F)(F)(F)(F)F.[Ni+2].c1ccc(CN2CCCN3CCCN(CCCN(Cc4ccccc4)CC3)CC2)cc1` [DJD22, [Ni(Bn2PBCyclam)(OAc)]PF6]: in assay [1], the “P. falciparum W2 IC50” value was 0.9060 µg/mL, the IC50 worked out at 1.33 µM and the “X more potent than chloroquine” value is 0.51. In the assay with C. krusei ATCC 6258, the “X more potent than Amphotericin B” value is reported as 0.19, the “C. krusei IC50” value amounted to 5.250 µg/mL and the IC50 worked out at 7.68 µM. The “X more potent than Pentamidine” value in assay [2] is 0.28. Moreover, the “L. donovani IC50” value in assay [2] (setting [4]) is 13.10 µg/mL. In assay [2] (setting [5]), the IC50 was 19.2 µM.

As to `CN1CCCN2CCN(CCCN(Cc3cccc(CN4CCCN5CCN(C)CCCN(CC5)CC4)c3)CC2)CC1.Cl.Cl.Cl.Cl.Cl.Cl.Cl.Cl` [TJS04, m-CB-cyclams HCl salt], in assay [1], the “P. falciparum W2 IC50” value came to 0.6558 µg/mL, the IC50 worked out at 0.75 µM and the “X more potent than chloroquine” value was found to be 0.90. In assay [3], the “Effect at 72 h (%)” value is recorded as 24.32%. Also, in assay [2], the “X more potent than Pentamidine” value is reported as 0.50. Further, the “L. donovani IC50” value in assay [2] (setting [4]) was found to be 10.37 µg/mL. The IC50 in assay [2] (promastigotes, 48 hours, Alamar Blue, HCl salt, read-out: L. donavani IC50) was 10.7 µM.

For `c1cc(CN2CCCN3CCCN(CCCNCC3)CC2)ccc1CN1CCCN2CCCN(CCCNCC2)CC1` [SLK10, p-H2PBCyclams], in assay [1], the “P. falciparum W2 IC50” value was 1.7920 µg/mL, the IC50 is 3.07 µM and the “X more potent than chloroquine” value is on record as 0.22. In assay [2], the “X more potent than Pentamidine” value was found to be 0.20. Moreover, the “L. donovani IC50” value in assay [2] (setting [4]) stood at 15.50 µg/mL. In addition, in assay [2] (setting [5]), the IC50 worked out at 26.6 µM.

Take `c1ccc(CN2CCN3CCCN(CC2)CCN(Cc2ccccc2)CC3)cc1` [AW009, Bn2PBCyclen]: in assay [1], the “P. falciparum W2 IC50” value turned out to be 1.5560 µg/mL, the IC50 amounted to 3.96 µM and the “X more potent than chloroquine” value stood at 0.17. Also, in the assay on C. krusei ATCC 6258, the “X more potent than Amphotericin B” value was 0.10, the “C. krusei IC50” value was 6.170 µg/mL and the IC50 is 15.7 µM. The “X more potent than Pentamidine” value in assay [2] is 0.10. Further, the “L. donovani IC50” value in assay [2] (setting [4]) was 21.40 µg/mL. The IC50 in assay [2] (setting [5]) was 54.5 µM.

In the case of `[Cl][Mn-2]([Cl])([Cl])[Cl].[Mn+2].c1ccc(CN2CCCN3CCCN(CCCN(Cc4ccccc4)CC3)CC2)cc1` [BME08, [Mn(Bn2PBCyclam)][MnCl4]], in assay [1], the “P. falciparum W2 IC50” value came to 0.1206 µg/mL, the IC50 worked out at 0.179 µM and the “X more potent than chloroquine” value came to 3.78. Further, in the assay on C. krusei ATCC 6258, the “X more potent than Amphotericin B” value stood at 0.19, the “C. krusei IC50” value amounted to 5.270 µg/mL and the IC50 came out at 7.84 µM. Moreover, the “X more potent than Pentamidine” value in assay [2] was 2 and 2.01. Further, the “L. donovani IC50” value in assay [2] (setting [4]) is 1.78 µg/mL. Further, in assay [2] (setting [5]), the IC50 amounted to 2.65 µM. For the same compound, the IC50 in assay [2] (read-out: IC50 against L. donovani) was 2.65 µM.
